What was measured:
[1] = target: T1, human Kv3.1 channels (hKv3.1) (Homo sapiens, UniProt P48547); experiment: hKv3.1 recombinant cell assay, IonWorks Quattro planar array electrophysiology; format: cell-based; settings: comparable = activity for one channel less than 2 fold that for the other
T1 construct: expressed in transfected cells; host or cells: CHO/Gam/E1A-clone22 (CGE22) cells, transduced with BacMam pFBM/human Kv3.1
T1 sequence (P48547 1-511): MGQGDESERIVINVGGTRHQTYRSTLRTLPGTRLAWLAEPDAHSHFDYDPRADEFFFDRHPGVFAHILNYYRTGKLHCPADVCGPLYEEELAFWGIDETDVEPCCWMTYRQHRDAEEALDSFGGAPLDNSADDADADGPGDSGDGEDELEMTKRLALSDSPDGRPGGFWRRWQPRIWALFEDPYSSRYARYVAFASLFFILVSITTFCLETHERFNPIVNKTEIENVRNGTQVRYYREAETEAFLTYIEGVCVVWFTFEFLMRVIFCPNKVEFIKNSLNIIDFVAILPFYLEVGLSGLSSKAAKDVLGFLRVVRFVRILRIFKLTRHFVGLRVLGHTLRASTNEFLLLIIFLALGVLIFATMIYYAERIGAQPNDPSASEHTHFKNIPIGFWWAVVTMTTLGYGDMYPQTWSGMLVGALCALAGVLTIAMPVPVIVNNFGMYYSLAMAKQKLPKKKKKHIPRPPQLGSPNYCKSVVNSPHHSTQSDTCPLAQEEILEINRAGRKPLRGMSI
Excerpt: The ability of the compounds of the invention to modulate the voltage-gated potassium channel subtypes Kv3.2/3.1 may be determined using the following assay. The assay may also be used to determine the ability of compounds of the invention to modulate the voltage-gated potassium channel Kv3.3. Analogous methods may be used to investigate the ability of the compounds of the invention to modulate other channel subtypes.
To assess compound effects on human Kv3.1 channels (hKv3.1), CHO/Gam/E1A-clone22 alias CGE22 cells were transduced using a hKv3.1 BacMam reagent. This cell line was designed to be an improved CHO-K1-based host for enhanced recombinant protein expression as compared to wild type CHO-K1. The cell line was generated following the transduction of CHO-K1 cells with a BacMam virus expressing the Adenovirus-Gam1 protein and selection with Geneticin-G418, to generate a stable cell line, CHO/Gam-A3. CHO/Gam-A3 cells were transfected with pCDNA3-E1A-Hygro, followed by hygromycin-B selection and FACS sorting to obtain single-cell clones. […]
Experiments were conducted at room temperature using IonWorks Quattro™ planar array electrophysiology technology (Molecular Devices Corp.) with PatchPlate™ PPC. […] Planar electrode hole resistances (Rp) were determined by applying a 10 mV voltage step across each well. […]

[2] = Determination of in vivo pharmacokinetic parameters (blood and brain) in rats, with and without Elacridar; settings: rat, oral 1 mg/kg
Method: Adult male rats (Charles River, Italy) were dosed with test compound orally at 1 mg/kg (5 ml/kg, in 5% v/v DMSO, 0.5% w/v HPMC in water) and intravenously at 0.5 mg/kg (2 ml/kg, in 5% v/v DMSO 40% w/v PEG400 in saline). After oral administration, blood samples were collected under deep Isofluorane anesthesia from the portal vein and heart of each rat (1 rat per time point). After intravenous administration, serial blood samples were collected from the lateral tail vein of each rat. A further group of rats (n=1 per test compound) received a single intravenous administration of the PgP transport inhibitor, Elacridar (3 mg/kg) shortly before the oral administration of the test compound at 1 mg/kg, as above. Blood and brain samples were collected at a single timepoint of 0.5 h after dose administration for these animals. In all cases, blood samples were collected into potassium EDTA tubes.
Blood and brain samples were assayed for test compound concentration using a method based on protein precipitation with acetonitrile followed by HPLC/MS-MS analysis with an optimized analytical method.
The concentrations of test compound in blood (expressed as ng/ml) and brain (expressed as ng/g) at the different time points following either oral or intravenous dosing were analysed using a non-compartmental pharmacokinetic model using WinNonLin Professional version 4.1. The following parameters were drived:
Intravenous dosing: Maximum concentration over time (Cmax), integrated concentration over time (AUC), clearance (Clb), volume of distribution (Vss) and half-life (t1/2).
Oral dosing: Cmax, time of maximum concentration (Tmax), AUC, bioavailability (F %), fraction absorbed (Fa %), blood to brain ratio (AUC BB), and Fold-change in AUC BB in the presence of Elacridar.

- AUC BB relative to Reference Example 87 and Reference Example 88 of WO2011069951A1 ([2]; AUC BB from blood and brain): at least two fold
- change in AUC BB in the presence of Elacridar ([2]; Elacridar 3 mg/kg i.v., blood and brain at 0.5 h, p-glycoprotein interaction): limited change
SMILES: Cc1ccc(Oc2ccc(-n3c(C)n[nH]c3=O)cn2)c2c1OCC21CC1 [Example 14, 5-methyl-4-{6-[(7-methylspiro[1-benzofuran-3,1′-cyclopropan]-4-yl)oxy]pyridin-3-yl}-2,4-dihydro-3H-1,2,4-triazol-3-one]
- activity between modulation of Kv3.1 and Kv3.2 channels [1]: comparable activity between modulation of Kv3.1 and Kv3.2 channels
